The values below come from patent publication US8710243B2, “Estrogen receptor ligands” (Karo Bio AB, priority 2009, dated 2014).

Molecules are shown by their SMILES.

This assay deals with T1, human estrogen receptor beta (Homo sapiens, UniProt Q92731).
T1 construct: expressed in transfected cells; host or cells: HEK293 (CRL-1573)
T1 sequence (Q92731 whole entry): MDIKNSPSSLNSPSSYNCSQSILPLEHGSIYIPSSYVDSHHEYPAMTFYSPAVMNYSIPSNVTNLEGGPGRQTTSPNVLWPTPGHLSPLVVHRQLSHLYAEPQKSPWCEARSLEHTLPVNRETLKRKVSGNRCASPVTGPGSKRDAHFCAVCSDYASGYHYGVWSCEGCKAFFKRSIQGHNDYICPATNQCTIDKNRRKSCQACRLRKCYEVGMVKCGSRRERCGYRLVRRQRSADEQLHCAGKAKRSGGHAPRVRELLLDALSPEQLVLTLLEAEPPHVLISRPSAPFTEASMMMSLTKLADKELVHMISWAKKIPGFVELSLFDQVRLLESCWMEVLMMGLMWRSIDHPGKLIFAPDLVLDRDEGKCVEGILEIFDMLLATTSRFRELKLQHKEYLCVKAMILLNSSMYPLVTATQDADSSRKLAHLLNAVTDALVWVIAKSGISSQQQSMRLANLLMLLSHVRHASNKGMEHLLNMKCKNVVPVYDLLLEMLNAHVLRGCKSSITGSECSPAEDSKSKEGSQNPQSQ
The experiment in a line: Transactivation Assay 2 in human embryonic kidney 293 cells stably transfected with pERE2-ALP and human estrogen receptor beta. Type of assay: cell-based. Conditions: read-out: potency at the estrogen receptor β-subtype, EC50. The protocol:
Transactivation Assay 2: Transactivation Assay in Human Embryonic Kidney 293 Cells Stably Transfected with pERE2-ALP and Human Estrogen Receptor Beta
Generation of stable HEK293 cell lines (CRL-1573; American Type Culture Collection) expressing the reporter vector pERE2-ALP and human estrogen receptor beta (hERβ 530) have been described (Mol Pharmacol 1998, 54, 105-112; Endocrinology 2002, 143, 1558-1561).
The cells were seeded in 384-well plates at 12 500 cells per well in Ham's F12 Coon's modification (without phenol red) with 10% dextran-coated charcoal treated (DCC) fetal bovine serum (FBS), 2 mM L-glutamine and 50 μg/ml gentamicin. After 24 h incubation (37° C., 5% CO2) the seeding medium was discarded and replaced with 20 μl Ham's F12 Coon's modification (without phenol red) with 1.5% DCC-FCS, 2 mM L-glutamine and supplemented with 100 U/ml penicillin and 100 μg/ml streptomycin. The selected compounds were added to the wells in 12 concentrations ranging from […] to 33 μM. The compounds were dissolved in 100% dimethylsulfoxide (DMSO) and the final concentration of DMSO in the assay was 0.1%. After 72 h incubation (37° C., 5% CO2) the medium was assayed for ALP activity by a chemiluminescence assay; a 10 μl aliquot of the conditioned medium was mixed with 100 μl assay buffer (0.1 M diethanolamine, 1 mM MgC12) and 0.5 mM disodium 3-(4-methoxyspiro 1,2-dioxetane-3,2′-(5′-chloro)-tricyclo[3.3.1.13,7]decan-4-yl)phenyl phosphate (CSPD) (Tropix, Applied Biosystems) and incubated for 20 min at 37° C. and 15 min at room temperature before measurement of the chemiluminescent signal (one second per well) in a Wallac Microbeta Trilux 1450-028 (PerkinElmer). The ALP activity expressed in LCPS is directly proportional to the level of ALP expressed by the cells. The half maximal effective concentrations of the test compounds (EC50) were calculated from the curves fitted to the concentration-response data with a four parameter logistic model in XLfit software version 2.0 (IDBS) or later.
As usually defined, the EC50 is the concentration at which the effect is half-maximal. As for `CC=C(C)c1c(-c2ccc(O)cc2)c2ccccc2n1C(N)=NO` (stereo in doubt) [Example 7, 2-((E)-but-2-en-2-yl)-N′-hydroxy-3-(4-hydroxyphenyl)-1H-indole-1-carboximidamide], the EC50 is 0.1 to 10 nM.

On to `Cc1noc(C)c1-c1c(-c2ccc(O)cc2)c2ccccc2n1C(N)=NO` [Example 2, 2-(3,5-dimethylisoxazol-4-yl)-N′-hydroxy-3-(4-hydroxyphenyl)-1H-indole-1-carboximidamide], for which the EC50 was in the range of 0.1 to 10 nM.

On to `Cc1noc(C)c1-c1c(-c2ccc(O)cc2)c2ccccc2n1C(N)=O` [Example 3, 2-(3,5-dimethylisoxazol-4-yl)-3-(4-hydroxyphenyl)-1H-indole-1-carboxamide], for which the EC50 lay in the range of 0.1 to 10 nM.

Turning to `Cc1noc(C)c1-c1c(-c2ccc(O)cc2)c2ccccc2n1C=NO` [Example 5, 2-(3,5-dimethylisoxazol-4-yl)-3-(4-hydroxyphenyl)-1H-indole-1-carbaldehyde oxime], the EC50 fell in the range of 0.1 to 10 nM.

Consider `Cc1noc(C)c1-c1c(-c2ccc(O)cc2)c2ccccc2n1S(C)(=O)=O` [Example 6, 4-(2-(3,5-dimethylisoxazol-4-yl)-1-(methylsulfonyl)-1H-indol-3-yl)phenol], for which the EC50 was 0.1 to 10 nM.

Turning to `CCNC(=O)n1c(-c2c(C)noc2C)c(-c2ccc(O)cc2)c2ccccc21` [Example 8, 2-(3,5-dimethylisoxazol-4-yl)-N-ethyl-3-(4-hydroxyphenyl)-1H-indole-1-carboxamide], the EC50 was in the range of 0.1 to 10 nM.

`Cc1csc(C)c1-c1c(-c2ccc(O)cc2)c2ccccc2n1C(N)=NO` [Example 10, 2-(2,4-dimethylthiophen-3-yl)-N′-hydroxy-3-(4-hydroxyphenyl)-1H-indole-1-carboximidamide]: the EC50 lay within 0.1 to 10 nM.

Consider `Cc1csc(C)c1-c1c(-c2ccc(O)cc2)c2ccccc2n1C(N)=O` [Example 11, 2-(2,4-dimethylthiophen-3-yl)-3-(4-hydroxyphenyl)-1H-indole-1-carboxamide], for which the EC50 lay within 0.1 to 10 nM.

With `Cc1cccc(C)c1-c1c(-c2ccc(O)cc2)c2ccccc2n1C(N)=NO` [Example 12, 2-(2,6-dimethylphenyl)-N′-hydroxy-3-(4-hydroxyphenyl)-1H-indole-1-carboximidamide], the EC50 fell in the range of 0.1 to 10 nM.

Regarding `Cc1noc(C)c1-c1c(-c2cc(F)c(O)c(F)c2)c2ccccc2n1C(N)=NO` [Example 16, 3-(3,5-difluoro-4-hydroxyphenyl)-2-(3,5-dimethylisoxazol-4-yl)-N′-hydroxy-1H-indole-1-carboximidamide], the EC50 is 0.1 to 10 nM.

For the compound `Cc1noc(C)c1-c1c(-c2ccc(O)cc2F)c2ccccc2n1C(N)=NO` [Example 18, 2-(3,5-dimethylisoxazol-4-yl)-3-(2-fluoro-4-hydroxyphenyl)-N′-hydroxy-1H-indole-1-carboximidamide], the EC50 lay in the range of 0.1 to 10 nM.

For `Cc1noc(C)c1-c1c(-c2cc(F)c(O)cc2F)c2ccccc2n1C(N)=NO` [Example 19, 3-(2,5-difluoro-4-hydroxyphenyl)-2-(3,5-dimethylisoxazol-4-yl)-N′-hydroxy-1H-indole-1-carboximidamide], the EC50 is 0.1 to 10 nM.

For the compound `Cc1noc(C)c1-c1c(-c2ccc(O)c(F)c2)c2ccccc2n1C(N)=NO` [Example 20, 2-(3,5-dimethylisoxazol-4-yl)-3-(3-fluoro-4-hydroxyphenyl)-N′-hydroxy-1H-indole-1-carboximidamide], the EC50 lay within 0.1 to 10 nM.

Turning to `Cc1csc(C)c1-c1c(-c2ccc(O)cc2)c2cc(Cl)ccc2n1C(N)=NO` [Example 21, 5-chloro-2-(2,4-dimethylthiophen-3-yl)-N′-hydroxy-3-(4-hydroxyphenyl)-1H-indole-1-carboximidamide], the EC50 fell in the range of 0.1 to 10 nM.

Turning to `Cc1noc(C)c1-c1c(-c2ccc(O)cc2)c2cc(Cl)ccc2n1C(N)=NO` [Example 22, 5-chloro-2-(3,5-dimethylisoxazol-4-yl)-N′-hydroxy-3-(4-hydroxyphenyl)-1H-indole-1-carboximidamide], the EC50 is 0.1 to 10 nM.

As to `Cc1coc(C)c1-c1c(-c2ccc(O)cc2)c2ccccc2n1C(N)=NO` [Example 23, 2-(2,4-dimethylfuran-3-yl)-N′-hydroxy-3-(4-hydroxyphenyl)-1H-indole-1-carboximidamide], the EC50 was in the range of 0.1 to 10 nM.

For the compound `Cc1nsc(C)c1-c1c(-c2ccc(O)cc2)c2ccccc2n1C(N)=NO` [Example 24, 2-(3,5-dimethylisothiazol-4-yl)-N′-hydroxy-3-(4-hydroxyphenyl)-1H-indole-1-carboximidamide], the EC50 fell in the range of 0.1 to 10 nM.
